Experimental data from publication PMC8983599 (Cancer Discovery, 2022).
Like-named read-outs stand apart in the source and are kept apart here.

Tests used:
[1] = system: Saa3 expression in mouse primary osteoblasts; test: Saa3 mRNA in primary differentiated mouse calvaria osteoblasts; type: cell-based; conditions: 25 nmol/L, 24 hours
[2] = system: patient-derived AML cells; test: PDX in NSG mice, combination therapy; type: in vivo; conditions: day 22 after initiating therapy
[3] = system: leukemic blasts (hCD45+ hCD33+); test: Kyn injection in low AML burden PDX mice; type: in vivo, NSGS mice; conditions: Kyn 20mg/kg for 1 week
5-HT1B receptor (HTR1B) = 5-HT1B receptor (HTR1B) (Homo sapiens, UniProt P28222); test: GloSensor Gi/o-mediated cAMP inhibition assay in transfected HEK293T cells; type: cell-based
[4] = system: Cyclins D1, D2, and E1 (targets of serotonin-HTR1B signaling); test: Bone; type: in vivo, mouse; conditions: SB9-treated mice
mouse HTR1B = mouse HTR1B (Mus musculus, UniProt P28334); conditions: Fig. S1M
murine HTR1B receptor = murine HTR1B receptor (Mus musculus, UniProt P28334); test: [3H]-Kyn binding competition, Htr1b-overexpressing HEK293T membranes; conditions: SB9 at ∼90 μmol/L, equal to the concentration administered in vivo
MLL/AF9 AML cells = type: in vivo, mouse
[5] = system: Kyn/Trp ratio (indicator of IDO1 activity); test: Serum Kyn and Trp levels; type: in vivo, mouse
[6] = system: patient-derived AML cells; test: Patient-derived AML xenograft; type: in vivo, NSGS mice; conditions: epacadostat 300 mg/kg daily gavage
[7] = Systemic toxicity of epacadostat diet in WT mice; type: in vivo, mouse; conditions: epacadostat ad libitum diet 0.8 g/kg
Ido1 = test: CRISPR/Cas9-mediated Ido1 targeting of primary murine MLL/AF9 cells; type: cell-based, mouse; conditions: Ido1 exon 3
WEHI-3B cells = test: Proliferation of mouse AML cell line exposed to SAA3; type: cell-based; conditions: SAA3 1 μg/mL, 24–72 hours, versus vehicle
[8] = system: Ido1 expression in WEHI-3B cells; test: Ido1 mRNA in WEHI-3B cells exposed to recombinant SAA; type: cell-based, mouse; conditions: exposed overnight
[9] = system: AHR target genes (CYP1A1, CYP1A2); test: AHR target gene mRNA in human AML and MDS cells exposed to SAA1; type: cell-based; conditions: SAA1 1µg/ml o/n
[10] = system: IDO1 expression in OCI-AML3 cells; test: IDO1 mRNA in human AML/MDS cell lines exposed to recombinant proteins; type: cell-based
[11] = system: leukemic blasts (hCD45+CD33+); type: in vivo, NSGS mice
[12] = system: total human BM cells isolated from PDX mice; test: Ex vivo human BM cells isolated from PDX mice; type: cell-based; conditions: SAA1 1 μg/mL, 24 hours
THP-1 and OCI-AML3 cells = test: Proliferation of human AML cell lines exposed to SAA1; type: cell-based; conditions: SAA1 1 μg/mL, 24–72 hours, versus vehicle
[13] = system: lineage-depleted AML and MDS BM-MNCs; type: cell-based, human; conditions: SAA1 5 μg/mL, 24 hours
[14] = SAA1 i.v., 2- and 8-day treatments

Sequence of 5-HT1B receptor (HTR1B) (P28222 whole entry): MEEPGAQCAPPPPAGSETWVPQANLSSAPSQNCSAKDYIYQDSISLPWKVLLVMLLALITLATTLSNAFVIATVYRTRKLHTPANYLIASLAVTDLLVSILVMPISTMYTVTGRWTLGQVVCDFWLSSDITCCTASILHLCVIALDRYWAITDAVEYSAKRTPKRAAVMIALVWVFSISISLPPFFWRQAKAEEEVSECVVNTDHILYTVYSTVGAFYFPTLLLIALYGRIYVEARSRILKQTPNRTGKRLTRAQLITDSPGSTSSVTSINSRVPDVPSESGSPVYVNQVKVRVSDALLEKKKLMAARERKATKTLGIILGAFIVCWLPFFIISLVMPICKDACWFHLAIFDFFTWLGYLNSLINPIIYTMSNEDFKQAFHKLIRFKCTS
Sequence of murine HTR1B receptor (P28334 whole entry): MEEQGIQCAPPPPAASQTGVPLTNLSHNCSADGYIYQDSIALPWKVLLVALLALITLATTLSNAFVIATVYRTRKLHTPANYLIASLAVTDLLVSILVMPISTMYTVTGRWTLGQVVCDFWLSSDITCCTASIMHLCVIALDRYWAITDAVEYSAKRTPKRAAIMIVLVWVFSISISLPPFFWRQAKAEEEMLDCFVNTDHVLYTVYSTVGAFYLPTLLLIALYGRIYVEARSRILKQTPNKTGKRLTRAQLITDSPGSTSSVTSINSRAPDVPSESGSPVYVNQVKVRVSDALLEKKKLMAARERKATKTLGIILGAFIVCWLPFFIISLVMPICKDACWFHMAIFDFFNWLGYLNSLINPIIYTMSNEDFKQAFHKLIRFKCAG
Sequence of mouse HTR1B (P28334 whole entry): as above

NCCc1c[nH]c2ccc(O)cc12 [5-HT, 5-hydroxytryptamine, reference compound]
Saa3 expression in mouse osteoblasts (Htr1b+/+) [1]: had no effect

Nc1ccn([C@@H]2O[C@H](CO)[C@@H](O)[C@@H]2O)c(=O)n1 [Ara-C, 1-β-D-arabinofuranosylcytosine]
effect on leukemic burden in SP relative to BM [2]: more sustained in the SP than in BM

Nc1ccccc1C(=O)CC(N)C(=O)O (stereo not drawn) [Kyn, kynurenine]
Saa3 expression in Htr1b−/− primary osteoblasts [1]: failed to upregulate Saa3 expression
Saa3 expression in mouse osteoblasts (Htr1b+/+) [1]: potently upregulated Saa3 expression
AML burden in BM and SP [3]: AML burden increased in BM and SP
proliferative capacity of the leukemic blasts [3]: increases
serum SAA3 ([3]; low AML burden PDX mice): increases serum SAA3
mode of action on Gi/o-mediated cAMP production through HTR1B (5-HT1B receptor (HTR1B)): partial agonist
EC50 (5-HT1B receptor (HTR1B); EC50 (nmol/L), cAMP Gi agonist, human HTR1B): ~0.772 µM

Cc1nc(-c2ccc(-c3ccc(C(=O)N4CCc5cc6c(cc54)C4(CCN(C)CC4)CO6)cc3)c(C)c2)no1 [SB224289, 1′-methyl-5-[[2′-methyl-4“-(5-methyl-1,2,4-oxadiazol-3-yl)biphenyl-4-yl]carbonyl]-2,3,6,7-tetrahydro-spiro[furo[2,3-f]indole-3,4-”piperidine]]
bone expression of Cyclins D1, D2, and E1 [4]: upregulated
5-HT binding to HTR1B at the administered dose (mouse HTR1B): effective in abolishing 5-HT binding to HTR1B
effect on Kyn binding to the murine HTR1B receptor (murine HTR1B receptor): no effect
protection of MLL/AF9-injected mice (MLL/AF9 AML cells; SB9 5 mg/kg i.p. daily from 1 week after leukemia injection): only partially protected
survival (MLL/AF9 AML cells; SB9 5 mg/kg i.p. daily versus vehicle): significant increase in survival

NS(=O)(=O)NCCNc1nonc1C(=NO)Nc1ccc(F)c(Br)c1 [epacadostat]
reduction in serum Kyn levels ([5]; MLL/AF9 mice, epacadostat diet 1.6 g/kg): 35%
reduction in basal (no leukemia) circulating Kyn/Trp levels ([5]; WT mice, epacadostat ad libitum diet 0.8 g/kg): 54%
systemic Kyn/Trp levels in MLL/AF9 leukemic mice ([5]; epacadostat diet 0.8 g/kg): did not reduce the 1.5-fold increase in systemic Kyn/Trp levels
G0–G1 and G2–M populations of leukemic blasts [6]: remained unchanged
leukemic blast apoptosis [6]: increased leukemic blast apoptosis
proliferation of leukemic blasts (hCD45+CD33+), in vivo cell cycle [6]: less proliferative
reduction in Kyn/Trp levels in blood ([6]; 12-day regimen): ~20%
reduction in AML BM burden ([6]; versus vehicle): ~20%
effect on leukemic burden in SP relative to BM [2]: more pronounced effect in the SP
leukemia progression (MLL/AF9 AML cells; epacadostat diet 0.8 g/kg): tendency toward a slower leukemia progression
survival (MLL/AF9 AML cells; epacadostat diet 0.8 g/kg): slight—yet significant—increase in survival
AML burden (MLL/AF9 AML cells; epacadostat diet 1.6 g/kg): significant delay in AML burden
survival (MLL/AF9 AML cells; epacadostat diet 1.6 g/kg, compared with the lower dose): significantly prolonged survival
systemic toxicity [7]: did not show any obvious systemic toxicity

sgRNA#196: chemically modified mouse sgRNA targeting Ido1 exon 3: CUGCCCACACUGAGCACGGA (chemically modified, pattern not given here)
deletion efficiency (Ido1): ~40%

B1: SAA3: recombinant mouse SAA3 (Cusabio), murine ortholog of SAA1 (protein, UniProt P04918 19-122, looked up)
Serum amyloid A-3 protein: QRWVQFMKEAGQGSRDMWRAYSDMKKANWKNSDKYFHARGNYDAARRGPGGAWAAKVISDAREAVQKFTGHGAEDSRADQFANEWGRSGKDPNHFRPAGLPKRY
proliferation of mouse AML cell line (WEHI-3B cells): increased proliferation
Ido1 expression in WEHI-3B cells [8]: upregulated Ido1 expression

B2: SAA1: recombinant human acute-phase protein serum amyloid A1 (PeproTech) (protein, UniProt P0DJI8 19-122, looked up)
Serum amyloid A-1 protein: RSFFSFLGEAFDGARDMWRAYSDMREANYIGSDKYFHARGNYDAAKRGPGGAWAAEVITDARENIQRFFGHGAEDSLADQAANEWGRSGKDPNHFRPAGLPEKY
AHR target gene expression in human AML and MDS cell lines [9]: upregulated most of the main AHR target genes
IDO1 upregulation in other cell lines ([10]; Fig. S4O, exposed o/n to SAA1): observed across several human AML cell lines as well as the MDS-L cell line
IDO1 expression in OCI-AML3 cells ([10]; overnight, 50 ng/mL recombinant protein): the only osteoblast-secreted molecule able to upregulate IDO1 expression
proliferative rate of leukemic blasts (EdU+ cells, S-phase) ([11]; SAA1 100 μg/kg i.v., 2- and 8-day treatments): maintained and prominent increase in the proliferative rate of leukemic blasts
G0–G1 cells of leukemic blasts [11, 14]: decrease
G2–M phase of leukemic blasts [11, 14]: unvarying
increase in AML burden in the BM ([11]; SAA1 i.v., completion of the 8-day treatment): 1.5 fold
Ido1 expression in WEHI-3B cells [8]: able to upregulate Ido1 expression in WEHI-3B cells with a magnitude similar to SAA3
IDO1 expression in PDX-isolated human cells [12]: upregulated only in response to SAA1 in the PDX AML-isolated human cells
proliferation of human cells from CD34+ healthy injected mice [12]: unresponsive
proliferation of patient-derived cells from AML-injected mice ([12]; versus vehicle): high proliferative activity
proliferation of human AML cell lines (THP-1 and OCI-AML3 cells): increased proliferation
IDO1 mRNA levels in patient-derived BM-MNCs [13]: increased
proliferation of lineage-depleted AML and MDS BM-MNCs from patient aspirates [13]: promoted proliferation
